# Results reported in patent US10292383B2, “Use of surface-reacted calcium carbonate as carrier for agrochemical compounds” (Omya International AG, priority 2015, dated 2019).
# Test system: Plasmopara viticola
# Experiment: Field application trial against downy mildew on vineyard (PESSEV / PESINC assessment on leaves and bunches)
# Format: in vivo
# Details: between T2 (0.021 kg DM/ha) and T3 (0.21 kg DM/ha), both on leaves and bunches
# Experimental: The application trials were carried out in Piedmont, Italy. In these trials, three different dosage rates of three of the above-mentioned samples (SRCC1-0.5 DM, SRCC1-5 DM, SRCC1-25 DM) were applied against downy mildew on vineyard and the efficacy and selectivity thereof was evaluated. In addition, the performance in comparison to commercially available fungicides was also evaluated. […]
# The efficacy against Plasmopara viticola and the selectivity on the crop of the test products SRCC1-0.5 DM and SRCC1-5 DM both applied in mixture with tribasic copper sulfate (Cupravit Bio Evoluion WG), respectively, in treatments T2 and T3, were evaluated. […]
# The efficacy of SRCC1-25 DM was also evaluated in treatment T4 and compared with the reference F50 sprayed in treatment T6. […]
# In this trial according to the present invention, the disease pressure was assessed through two standard parameters: • (i) PESSEV=the pest severity (i.e. the intensity) determined as infected area per bunch or leaf in %; and • (ii) PESINC=the pest incidence (i.e. the frequency) determined in % of bunches and leaves infected. […]
compound,measurement,value
COc1ccc(C(=CC(=O)N2CCOCC2)c2ccc(Cl)cc2)cc1OC [dimethomorph],dosage rate effect of active ingredient,significant dosage rate effect
